In patent US10435399B2, “HDAC6 inhibitory heterocyclic compound” (TAKEDA PHARMACEUTICAL COMPANY LIMITED, priority 2017, dated 2019):

Tested on: acetylated tubulin in brain (hippocampus)
Assay: Increase in acetylated tubulin in brain (hippocampus ELISA)
Type: in vivo, C57BL/6J mouse
Details: mouse hippocampus, oral 10 mg/kg, 4 h after administration, vs vehicle
Method: Increase in Acetylated Tubulin in Brain
A drug was suspended in 0.5% methyl cellulose to prepare a suspension for administration, having a concentration shown in Table 3. The suspension was orally administered into 8 to […] male C57BL/6J mouse, and after the passage of the time shown in Table 3, the brain was taken out, and hippocampus was obtained. The hippocampus was homogenized under RIPA extract (Wako) to which protease inhibitor (Thermo) and phosphatase inhibitor (Thermo) were added, and centrifuged in 15,000 g for 15 min to prepare a protein extract. The acetylated tubulin and total tubulin in the extract were detected by the following ELISA method. Tubulin antibody (Sigma) was immobilized on 96-well plate (Microlite2+, Thermo), and the plate was stored at 4° C. […] The plate was washed, HRP substrate was added thereto, and the luminescence was measured using a plate reader. The acetylated tubulin and total tubulin were quantified from logistics curve based on dilution series using the mouse hippocampus tissue extract, and the acetylated tubulin relative to total tubulin was calculated, and evaluated as an relative tubulin acetylation level. […] After F test for vehicle group and drug group, the significant difference between the two groups was analyzed by Student t-test or Welch test (indicated as * p<0.05, ** p<0.01). […]

O=C1c2cc(-c3nnc(C(F)F)o3)cnc2CN1[C@@H]1CCCC[C@H]1NC(=O)C(F)(F)C(F)(F)F [Example 489, N-((1R,2R)-2-(3-(5-(difluoromethyl)-1,3,4-oxadiazol-2-yl)-5-oxo-5,7-dihydro-6H-pyrrolo[3,4-b]pyridin-6-yl)cyclohexyl)-2,2,3,3,3-pentafluoropropanamide]
relative tubulin acetylation level (acetylated tubulin relative to total tubulin): increase in significant tubulin acetylation level was observed
